What was measured:
Assay type in all cases: physicochemical
[1] = leaching of Japan cedar blocks treated with LSA and chemical agents (Example 4); conditions: 5% LSA; for Elution Rate (%) Chemical Agent: species measured as bracketed (Copper, Zinc, Nickel, Boron, H = hinokitiol), else the agent named
Description: For chemical agents having low solubilities, they were added to aqueous lignosulfonic acid solution after it was warmed to 60 to 90° C., and it was cooled at 25° C. after the chemical agents were suspended, dispersed, dissolved by Vortex-Mixer, […]
The amount of lignosulfonic acid which leached off was determined by measurement of the absorbance at 280 nm, and the amount of the chemical agent which leached off was determined by complex formation and spectrophotometry using PAN (1-(2-pyridylazo)-2-naphthol, Aldrich Chemical Company) or quinalizarin (Wako Pure Chemicals), separation, identification and determination, using HPLC or gas chromatography, or atomic absorption analysis were performed, followed by calculation of the amount of the chemical agents which was eluted. When the chemical agents had absorption at 280 nm, the concentration of lignosulfonic acid was calculated by measuring the absorbance at 280 nm of the chemical agents of which the concentration was measured by the above-described method and subtracting an influence by the chemical agent from the absorbance at 280 nm of the liquid which was eluted. The amounts of the chemical agents and lignosulfonic acid which were eluted were calculated and compared taking the amounts of them injected upon the impregnation treatment as 100%.

[2] = leaching of cypress blocks, bilirubin oxidase (Example 6); conditions: for Elution Rate (%) LSA: pH 8.1-8.8; for Elution Rate (%) Chemical Agent: pH 8.1-8.8, species as bracketed (Copper, Zinc, Nickel, Boron, H = hinokitiol), else the agent named
Text: Taking the amounts of the lignosulfonic acid (LSA) and chemical agent as injected upon the impregnation treatment as 100%, respectively, the amounts of the substances which were eluted were compared.

[3] = leaching of Japan cedar blocks, treating mixture with tung oil (Example 8); conditions: Example 1 enzyme, 5% LSA, 2,000 ppm tung oil; for Elution Rate (%) LSA: pH 8.1-8.5; for Elution Rate (%) Chemical Agent: pH 8.1-8.5, species as bracketed (Copper, Zinc, Nickel, H = hinokitiol), else the agent named
Description: The amounts of the chemical agents and lignosulfonic acid which were eluted were calculated and compared taking the amounts of them injected upon the impregnation treatment as 100%.

[4] = leaching of cypress blocks, peroxidase + alcohol oxidase (Example 7); conditions: 5 U/ml peroxidase + 5 U/ml alcohol oxidase + 1% methanol
Text: The peroxidase used was obtained from horse radish (Type II, Sigma) and the alcohol oxidase used was obtained from Candida boidini (Boehringer Mannheim Biochemica).

[5] = leaching of Japan cedar blocks, liquid treatment agent stored 2 weeks (Example 21); conditions: diluted 10-fold; for Elution Rate (%) LSA: liquid agent (6 g powder in 12 ml) stored airtight 2 weeks, Japan cedar; for Elution Rate (%) Chemical Agent: liquid agent stored airtight 2 weeks, species as bracketed (Copper, Zinc, Nickel, Boron, H = hinokitiol), else the agent named
Description: Further, 6 g of the powdery treatment agent obtained in the same manner as described above was dissolved in 12 ml of deionized water to obtain a liquid treatment agent for a porous article. The liquid treatment agent was transferred into a 20 ml screw capped test tube. After the test tube stand airtightly at room temperature for 2 weeks, the liquid treatment agent was diluted 10-fold with deionized water to prepare a solution for treating a porous article. Japan cedar wood blocks were subjected to reduced pressure impregnation treatment with the solution thus obtained, drying/macromolecularization reaction, and elution treatment in the same manner as in Examples 3 and 4. The amounts of the lignosulfonic acid which were eluted were calculated and compared taking the amounts of it injected upon the impregnation treatment as 100%.

[6] = leaching of Japan cedar blocks, powdery treatment agent stored 2 weeks (Example 21); conditions: 5 g in 100 ml; for Elution Rate (%) LSA: powdery agent (10 mg enzyme + 10 g LSA + agent) stored 2 weeks, Japan cedar; for Elution Rate (%) Chemical Agent: powdery agent stored 2 weeks, species as bracketed (Copper, Zinc, Nickel, Boron, H = hinokitiol), else the agent named
Description: 10 mg of the freeze-dried product described in Example 1, 10 g of commercially available lignosulfonic acid (LSA) powder, and various chemical agents were mixed well in a mortar to obtain a treatment agent for treating a porous article. If desired, a small amount of sodium carbonate powder was added to the resulting powder and mixed well, so that when a 5% aqueous solution was prepared from the above-described powder the solution could have a pH of 8.0 to 9.0. Then, after the powdery treatment agent was left to stand at room temperature for 2 weeks, 5 g of the powder was dissolved in 100 ml of deionized water to prepare a solution for treating a porous article. Using this solution, Japan cedar wood blocks were subjected to reduced pressure impregnation, drying/macromolecularization reaction, and leaching in the same manner as in Examples 3 and 4. Taking the amounts of lignosulfonic acid and chemical agents injected upon the impregnation treatment as 100%, respectively, the amounts of them which was eluted were compared. The results are shown in Table 12, from which it can be seen that the powdery treatment agent enables effective treatment of porous articles.

[7] = in the absence of enzyme (comparison), pH 8.1-8.8
[8] = in the presence of enzyme, Japan cedar, pH of treating agent 8.1-8.8
[9] = in the presence of enzyme, pH 8.1-8.8

Molecule | Elution Rate (%) LSA [1, 7] | Elution Rate (%) Chemical Agent [1, 7] | Elution Rate (%) LSA [1, 8] | Elution Rate (%) Chemical Agent [1, 9] | Elution Rate (%) LSA [2] | Elution Rate (%) Chemical Agent [2] | Elution Rate (%) LSA [3] | Elution Rate (%) Chemical Agent [3] | Elution Rate (%) LSA ([4]; pH 8.1-8.8) | Elution Rate (%) Chemical Agent ([4]; pH 8.1-8.8, species as bracketed (Copper, Zinc, Boron, H = hinokitiol), else the agent named) | Elution Rate (%) LSA [5] | Elution Rate (%) Chemical Agent [5] | Elution Rate (%) LSA [6] | Elution Rate (%) Chemical Agent [6]
CC(C)=CCCC(C)CCO (stereo not drawn) [100 ppm β-citronellol, β-citronellol] | 25.4% | 6.8% | 0.7% | 0.4% | 2.9% | 0.8% | 1.7% | 0.2% | – | – | – | – | – | –
Nc1ccccc1N [200 ppm o-Phenylenediamine, o-Phenylenediamine] | 16.5% | 5.3% | 1.0% | 0.2% | 2.5% | 0.6% | – | – | – | – | – | – | – | –
OB(O)O [1% Boric acid, Boric acid] | 22.1% | 32.3% | 0.7% | 25.1% | 3.7% | 26.2% | – | – | 5.6% | 27.5% | – | – | – | –
CC(C)=CCCC(C)=CC=O [100 ppm citral, citral] | 23.4% | 7.1% | 2.5% | 1.8% | 7.9% | 6.0% | – | – | – | – | – | – | – | –
CC1=CC[C@@H]2C[C@H]1C2(C)C [500 ppm (1R)-(+)-α-pinene, (1R)-(+)-α-pinene] | 22.8% | 7.3% | 0.6% | 0.3% | 1.0% | 1.2% | 0.7% | 0.2% | – | – | – | – | – | –
Cc1cc2cccc(C)c2cc1C [10 ppm 2,3,5-Trimethylnaphthalene, 2,3,5-Trimethylnaphthalene] | 23.3% | 5.6% | 0.8% | 0.1% | 2.4% | 0.3% | – | – | – | – | – | – | – | –
C=CCN=C=S [100 ppm Allyl isothiocyanate, Allyl isothiocyanate] | 26.3% | 7.5% | 3.5% | 2.2% | 8.5% | 7.8% | 2.1% | 1.3% | – | – | – | – | – | –
O=CC=Cc1ccccc1 [100 ppm Cinnamaldehyde, Cinnamaldehyde] | 22.1% | 8.5% | 1.5% | 0.7% | 5.4% | 2.1% | 1.9% | 0.2% | – | – | – | – | – | –
Nc1ccccc1N [o-Phenylenediamine (0.04 g), o-Phenylenediamine] | – | – | – | – | – | – | – | – | – | – | 2.1% | 0.8% | 1.5% | 0.4%

Other lines, results leading:

Elution Rate (%) LSA [1, 7] | Elution Rate (%) Chemical Agent [1, 7] | Elution Rate (%) LSA [1, 8] | Elution Rate (%) Chemical Agent [1, 9] | Elution Rate (%) LSA [2] | Elution Rate (%) Chemical Agent [2] | Elution Rate (%) LSA [3] | Elution Rate (%) Chemical Agent [3] | Elution Rate (%) LSA ([4]; pH 8.1-8.8) | Elution Rate (%) Chemical Agent ([4]; pH 8.1-8.8, species as bracketed (Copper, Zinc, Boron, H = hinokitiol), else the agent named) | Elution Rate (%) LSA [5] | Elution Rate (%) Chemical Agent [5] | Elution Rate (%) LSA [6] | Elution Rate (%) Chemical Agent [6] | Molecule
27.4% | 7.5% | 0.5% | 0.2% | 2.8% | 1.3% | 0.6% | 0.4% | – | – | – | – | – | – | CC1CCC(C(C)C)C(O)C1 [500 ppm (1R,2S,5R)-(−)-menthol, (1R,2S,5R)-(−)-menthol]
24.5% | 9.1% | 0.7% | 0.6% | 1.1% | 1.4% | 0.6% | 0.3% | – | – | – | – | – | – | CC1=CCC(C(C)(C)O)CC1 (stereo not drawn) [500 ppm α-terpineol, α-terpineol]
– | – | – | – | – | – | – | – | – | – | 0.4% | 2.5% | 0.6% | 3.0% | CC(C)c1cccc(=O)c(O)c1 [Hinokitiol (0.2 g), Hinokitiol]
– | – | – | – | – | – | – | – | – | – | 2.0% | 3.4% | 2.9% | 3.2% | (+)-Catechin.H2O [(+)-Catechin.H2O (0.2 g)]
– | – | – | – | – | – | – | – | – | – | 0.6% | – | 0.6% | 18.1% | OB(O)O [Boric acid (2 g), Boric acid]
25.7% | 6.2% | 0.5% | 0.2% | 0.8% | 0.6% | 0.5% | 0.2% | – | – | – | – | – | – | CC12CCC(CC1)C(C)(C)O2 [500 ppm cineole, cineole]
– | – | – | – | – | – | – | – | – | – | 3.7% | 4.6% | 3.6% | 4.2% | O=C(OC[C@H]1O[C@@H](OC(=O)c2cc(O)c(O)c(OC(=O)c3cc(O)c(O)c(O)c3)c2)[C@H](OC(=O)c2cc(O)c(O)c(OC(=O)c3cc(O)c(O)c(O)c3)c2)[C@@H](OC(=O)c2cc(O)c(O)c(OC(=O)c3cc(O)c(O)c(O)c3)c2)[C@@H]1OC(=O)c1cc(O)c(O)c(OC(=O)c2cc(O)c(O)c(O)c2)c1)c1cc(O)c(O)c(OC(=O)c2cc(O)c(O)c(O)c2)c1 [Tannic acid (0.1 g), Tannic acid]

Reference: patent publication US20030017565A1, “COMPOSITION AND METHOD FOR TREATING A POROUS ARTICLE AND USE THEREOF” (priority 1996, published 2003)
